What was measured:
human Nav1.5 [1] = biological target: T1, human Nav1.5 (Homo sapiens (Human), UniProt Q14524); assay: Qpatch automated patch-clamp, peak Nav1.5 current inhibition, 5-Hz AF-like assay (holding potential -85 mV); format: cell-based
From the text: (§1) Electrophysiology was used to measure the ionic currents in isolated living cells using automated patch-clamp recording, performed using an automated patch-clamp machine called Qpatch (Sophion Bioscience). Two different assay conditions were used to identify compounds with atrial-selective potential. The 5-Hz AF-like assay has more depolarized holding potential at −85 mV to mimic atrial resting membrane potential (RMP) and was used to identify compounds of strong rate-dependence. Active, rate-dependent compounds were then screened at 1 Hz (i.e., sinus rate) at the holding potential of −100 mV to mimic the ventricular scenario and help identify compounds with the largest potency separation or attenuation from the 5-Hz AF-like assay. Such compounds have the potential for treating AF without the QRS liability inherent to Class Ic drugs.
(§2) The sodium current conducted through a cell (via Nav1.5) or electrical signals were processed through a low-pass filter at 5 KHz, re-digitalized and acquired at 20 kHz. Series resistance was not compensated and leak subtraction was performed.
(§3) 1 to 3 million Chinese Hamster Ovary cells (also known as CHO-K1) stably expressing human Nav1.5 were seeded into […] culture flasks with 25 mL medium (consisting of Gibco Dulbecco's Modified Eagle Medium as a base medium with 1% MEM non-essential amino acids, 400 μg/mL Geneticin, 5 μg/mL puromycin and 10% fetal bovine serum) 48-72 hours prior to the experiments. On the day of the experiment, cells were washed once with phosphate-buffered saline (also known as PBS; Gibco) detached with Detachin™ (Genlantis), and re-suspended in CHO—S-SFM II media (Gibco) at 200,000 cells/mL. The CHO—S-SFM II was replaced with assay solutions prior to the assays. Whole-cell currents were recorded at room temperature in the whole-cell configuration. The external aqueous assay solution (pH=7.4; Osm=307-315) contained the following (the concentration for each component is expressed in parentheses in mM): NaCl (140 mM), KCl (4 mM), CaCl2) (2 mM), MgCl2 (1 mM), 4-(2-hydroxyethyl)-1-piperazineethanesulfonic acid, also known as HEPES (10 mM), and glucose (5 mM). The internal aqueous assay solution (pH=7.2; Osm=292-295) contained the following (the concentration for each component is expressed in parentheses in mM): CsF (110 mM), CsCl (10 mM), NaCl (10 mM), HEPES (10 mM), and ethylene glycolbis(β-aminoethyl ether)-N,N,N′,N′-tetraacetic acid, also known as EGTA (10 mM).
To assess peak Nav1.5 current inhibition in an atrial fibrillation-mimicking condition (Nav1.5 IC50 (5 Hz, AF-like rate) (μM)), compounds were first prepared at 10 mM in DMSO, and cells were pre-incubated with test compounds at each concentration for 3 min. in an ascending order of 0, 0.37, 1.1, 3.3, 10 and 30 μM. An atrial action potential-like protocol consisting of a voltage ramp (+10 mV to −85 mV for a 150 ms duration and a holding potential at −85 mV) was then applied to cells at 5 Hz for 12 s until no further current change or inhibition was observed. The percent inhibition (expressed as ([Iafter compound treatment/Ibefore compound treatment]×100%) is calculated by normalizing the peak current amplitude at the last pulse of each of the 6 compound concentrations by the amplitude before exposure to the test compound. The compiled data was further normalized by vehicle control (DMSO) to account for Nav1.5 current run-down, and IC50 was calculated by Matlab (MathWorks, USA).

human Nav1.5 [2] = biological target: T1, human Nav1.5; assay: Qpatch automated patch-clamp, peak Nav1.5 current inhibition, 1 Hz with 50 nM ATX-II (holding potential -100 mV); format: cell-based; conditions: CHO-K1 cells stably expressing human Nav1.5, read-out: Nav1.5 IC50 (1 Hz, ATXII)
From the text: as §1, §2, §3
To assess peak Nav1.5 current inhibition mimicking a ventricular condition at sinus rate with or without ATX-II (Nav1.5 IC50 (1 Hz, ATXII) (μM) or (1 Hz, Sinus Rate) (μM)), compounds were first prepared at 10 mM in DMSO, and cells were pre-incubated with test compounds at each concentration for 3 min. in an ascending order of 0, 0.37, 1.1, 3.3, 10 and 30 uM. In the assay with ATX-II (Alomone Labs), 50 nM ATX-II was included during the 3-min. compound incubation. A square pulse (−10 mV; 400 ms and a holding potential at −100 mV) was run at 1 Hz for 25 s until no further inhibition or Nav1.5 current change was observed. The percent inhibition (expressed as ([Iafter compound treatment/Ibefore compound treatment]×100%) is calculated by normalizing the peak current amplitude at the last pulse of each of the 6 compound concentrations by the amplitude before exposure to the test compound. The compiled data was further normalized by vehicle control (DMSO) to account for Nav1.5 current run-down, and IC50 was calculated by Matlab (MathWorks, USA).

[3] = CHO-K1 cells stably expressing human Nav1.5, holding potential -85 mV, Table 5, read-out: Nav1.5 IC50 (5 Hz, AF Rate)
[4] = CHO-K1 cells stably expressing human Nav1.5, Table 6, Examples 63-90, read-out: Nav1.5 IC50 (5 Hz, AF Rate)

T1 sequence (Q14524 whole entry): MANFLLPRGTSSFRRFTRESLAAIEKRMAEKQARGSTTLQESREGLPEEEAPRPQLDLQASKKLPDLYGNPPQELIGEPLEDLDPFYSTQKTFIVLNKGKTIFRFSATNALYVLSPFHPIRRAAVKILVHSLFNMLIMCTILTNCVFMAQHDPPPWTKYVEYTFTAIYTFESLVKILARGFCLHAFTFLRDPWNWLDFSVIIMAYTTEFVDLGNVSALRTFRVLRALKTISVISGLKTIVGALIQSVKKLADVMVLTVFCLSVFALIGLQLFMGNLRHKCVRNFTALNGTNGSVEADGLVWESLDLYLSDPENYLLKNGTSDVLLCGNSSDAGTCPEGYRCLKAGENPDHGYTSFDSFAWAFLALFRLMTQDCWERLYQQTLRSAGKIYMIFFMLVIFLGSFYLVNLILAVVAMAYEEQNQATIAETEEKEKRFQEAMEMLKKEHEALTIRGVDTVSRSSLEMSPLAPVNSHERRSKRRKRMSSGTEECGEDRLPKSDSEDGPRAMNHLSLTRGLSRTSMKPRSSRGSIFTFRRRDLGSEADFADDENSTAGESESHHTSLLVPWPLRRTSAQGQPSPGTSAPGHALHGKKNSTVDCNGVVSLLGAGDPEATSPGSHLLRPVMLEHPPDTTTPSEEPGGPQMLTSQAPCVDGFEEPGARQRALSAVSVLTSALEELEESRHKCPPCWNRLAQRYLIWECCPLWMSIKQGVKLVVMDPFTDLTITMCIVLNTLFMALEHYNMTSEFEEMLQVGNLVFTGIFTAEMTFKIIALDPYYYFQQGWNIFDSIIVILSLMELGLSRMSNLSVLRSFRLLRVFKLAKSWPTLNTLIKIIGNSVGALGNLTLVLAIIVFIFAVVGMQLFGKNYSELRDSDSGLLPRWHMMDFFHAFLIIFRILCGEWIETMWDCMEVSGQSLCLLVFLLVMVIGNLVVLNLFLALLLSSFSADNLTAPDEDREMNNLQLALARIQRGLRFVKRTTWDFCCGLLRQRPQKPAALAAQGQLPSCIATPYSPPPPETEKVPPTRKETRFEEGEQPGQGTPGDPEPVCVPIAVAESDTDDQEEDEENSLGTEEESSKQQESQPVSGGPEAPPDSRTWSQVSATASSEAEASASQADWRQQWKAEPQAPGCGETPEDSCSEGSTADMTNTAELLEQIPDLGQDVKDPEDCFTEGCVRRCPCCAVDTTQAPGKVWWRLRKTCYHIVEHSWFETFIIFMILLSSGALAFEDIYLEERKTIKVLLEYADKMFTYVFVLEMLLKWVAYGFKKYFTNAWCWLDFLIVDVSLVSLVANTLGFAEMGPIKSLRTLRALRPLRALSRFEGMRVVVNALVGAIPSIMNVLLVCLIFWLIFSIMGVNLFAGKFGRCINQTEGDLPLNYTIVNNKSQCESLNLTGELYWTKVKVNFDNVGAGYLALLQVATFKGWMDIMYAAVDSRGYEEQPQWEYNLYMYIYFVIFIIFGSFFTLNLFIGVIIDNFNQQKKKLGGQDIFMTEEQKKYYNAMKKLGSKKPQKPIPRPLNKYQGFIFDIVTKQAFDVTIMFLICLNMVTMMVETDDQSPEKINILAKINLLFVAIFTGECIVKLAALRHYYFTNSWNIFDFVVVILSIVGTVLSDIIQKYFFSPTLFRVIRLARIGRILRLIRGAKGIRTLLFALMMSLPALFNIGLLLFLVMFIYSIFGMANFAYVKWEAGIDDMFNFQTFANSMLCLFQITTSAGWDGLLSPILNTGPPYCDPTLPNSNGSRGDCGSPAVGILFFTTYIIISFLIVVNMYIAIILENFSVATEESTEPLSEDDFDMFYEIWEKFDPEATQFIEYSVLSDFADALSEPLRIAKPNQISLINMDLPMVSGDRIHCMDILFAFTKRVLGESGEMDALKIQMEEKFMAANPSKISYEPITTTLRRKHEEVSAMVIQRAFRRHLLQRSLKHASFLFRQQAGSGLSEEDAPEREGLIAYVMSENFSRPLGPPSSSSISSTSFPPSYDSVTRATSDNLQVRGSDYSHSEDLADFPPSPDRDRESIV

| Structure (SMILES) | IC50 (human Nav1.5 [1]; [3]) [µM] | IC50 (human Nav1.5 [2]) [µM] | IC50 (human Nav1.5 [1]; [4]) [µM] |
| --- | --- | --- | --- |
| NS(=O)(=O)CC(O)c1cccc(-c2ccn(Cc3cc(OC(F)(F)F)ccc3F)n2)n1 (racemic) [Example 36, 2-(6-(1-(2-fluoro-5-(trifluoromethoxy)benzyl)-1H-pyrazol-3-yl)pyridin-2-yl)-2-hydroxyethane-1-sulfonamide] | 3.7 | > 30 |  |
| NS(=O)(=O)CC(O)(c1cccc(-c2ccn(Cc3cc(OC(F)(F)F)ccc3F)n2)n1)C(F)(F)F (racemic) [Example 39, 3,3,3-trifluoro-2-(6-(1-(2-fluoro-5-(trifluoromethoxy)benzyl)-1H-pyrazol-3-yl)pyridin-2-yl)-2-hydroxypropane-1-sulfonamide] | 4.4 | > 30 |  |
| CC(O)(CS(N)(=O)=O)c1ccc(Cl)c(-c2nnn(Cc3cc(OC(F)(F)F)ccc3F)n2)n1 (racemic) [Rac-27 + 28, 2-(5-chloro-6-(2-(2-fluoro-5-(trifluoromethoxy)benzyl)-2H-tetrazol-5-yl)pyridin-2-yl)-2-hydroxypropane-1-sulfonamide] | 1.1 | 16 |  |
| CC(O)(CS(N)(=O)=O)c1cccc(-c2cnn(Cc3cc(OC(F)(F)F)ccc3F)n2)n1 (racemic) [Rac-61 + 62] | 3.4 | > 30 |  |
| CC(O)(CS(N)(=O)=O)c1cccc(-c2nnn(Cc3cc(C(F)(F)F)ccc3F)n2)n1 (single isomer, unassigned) [Example 19, (R or S)-2-(6-(2-(2-fluoro-5-(trifluoromethyl)benzyl)-2H-tetrazol-5-yl)pyridin-2-yl)-2-hydroxypropane-1-sulfonamide] | 5 | 14 |  |
| CC(O)(CS(N)(=O)=O)c1cccc(-c2nnn(Cc3cc(C(F)(F)F)ccc3F)n2)n1 (single isomer, unassigned) [Example 20, (R or S)-2-(6-(2-(2-fluoro-5-(trifluoromethyl)benzyl)-2H-tetrazol-5-yl)pyridin-2-yl)-2-hydroxypropane-1-sulfonamide] | 7.9 | 23 |  |
| CC(O)(CS(N)(=O)=O)c1cccc(-c2nnn(Cc3cc(Cl)ccc3F)n2)n1 (single isomer, unassigned) [Example 21, (R or S)-2-(6-(2-(5-chloro-2-fluorobenzyl)-2H-tetrazol-5-yl)pyridin-2-yl)-2-hydroxypropane-1-sulfonamide] | 6.3 | > 30 |  |
| CC(O)(CS(N)(=O)=O)c1cccc(-c2nnn(Cc3cc(Cl)ccc3F)n2)n1 (single isomer, unassigned) [Example 22, (R or S)-2-(6-(2-(5-chloro-2-fluorobenzyl)-2H-tetrazol-5-yl)pyridin-2-yl)-2-hydroxypropane-1-sulfonamide] | 8.4 | 22 |  |
| CC(O)(CS(N)(=O)=O)c1ccc(Cl)c(-c2nnn(Cc3cc(OC(F)(F)F)ccc3F)n2)n1 (single isomer, unassigned) [Example 27, (R or S)-2-(5-chloro-6-(2-(2-fluoro-5-(trifluoromethoxy)benzyl)-2H-tetrazol-5-yl)pyridin-2-yl)-2-hydroxypropane-1-sulfonamide] | 0.8 | 4.1 |  |
| CC(O)(CS(N)(=O)=O)c1ccc(Cl)c(-c2nnn(Cc3cc(OC(F)(F)F)ccc3F)n2)n1 (single isomer, unassigned) [Example 28, (R or S)-2-(5-chloro-6-(2-(2-fluoro-5-(trifluoromethoxy)benzyl)-2H-tetrazol-5-yl)pyridin-2-yl)-2-hydroxypropane-1-sulfonamide] | 0.7 | 3.2 |  |
| CC(O)(CS(N)(=O)=O)c1cccc(-c2ccn(Cc3cc(OC(F)(F)F)ccc3F)n2)n1 (single isomer, unassigned) [Example 37, (R or S)-2-(6-(1-(2-fluoro-5-(trifluoromethoxy)benzyl)-1H-pyrazol-3-yl)pyridin-2-yl)-2-hydroxypropane-1-sulfonamide] | 1.3 | 14 |  |
| CC(O)(CS(N)(=O)=O)c1cccc(-c2ccn(Cc3cc(OC(F)(F)F)ccc3F)n2)n1 (single isomer, unassigned) [Example 38, (R or S)-2-(6-(1-(2-fluoro-5-(trifluoromethoxy)benzyl)-1H-pyrazol-3-yl)pyridin-2-yl)-2-hydroxypropane-1-sulfonamide] | 4.3 | > 30 |  |
| CC(O)(CS(N)(=O)=O)c1cccc(-c2nc(Cc3cc(OC(F)(F)F)ccc3F)no2)n1 (single isomer, unassigned) [Example 57, (R or S)-2-(6-(3-(2-fluoro-5-(trifluoromethoxy)benzyl)-1,2,4-oxadiazol-5-yl)pyridin-2-yl)-2-hydroxypropane-1-sulfonamide] | 3.6 | 27 |  |
| C[C@](O)(CS(N)(=O)=O)c1cccc(-c2nnn(Cc3cccc(OC(F)(F)F)c3F)n2)n1 [Example 75] |  |  | 4.8 |
| COc1ccc(F)c(Cn2nnc(-c3cccc([C@@](C)(O)CS(N)(=O)=O)n3)n2)c1 [Example 76] |  |  | 17 |
| C[C@](O)(CS(N)(=O)=O)c1cccc(-c2nnn(Cc3cc(OC(F)(F)F)ccc3Cl)n2)n1 [Example 77] |  |  | 13 |
| C[C@](O)(CS(N)(=O)=O)c1cccc(-c2nnn(Cc3cc(Cl)ccc3Cl)n2)n1 [Example 78] |  |  | 10 |
| C[C@](O)(CS(N)(=O)=O)c1cccc(-c2nnn(Cc3c(F)cccc3C(F)(F)F)n2)n1 [Example 79] |  |  | 13 |
| C[C@](O)(CS(N)(=O)=O)c1cccc(-c2nnn(Cc3ccc(Cl)c(C(F)(F)F)c3)n2)n1 [Example 80] |  |  | 14 |
| C[C@](O)(CS(N)(=O)=O)c1cccc(-c2nnn(Cc3cc(Cl)c(F)cc3F)n2)n1 [Example 81] |  |  | 21 |
| C[C@](O)(CS(N)(=O)=O)c1cccc(-c2nnn(Cc3cccc(OC(F)(F)F)c3)n2)n1 [Example 82] |  |  | 7.3 |
| C[C@](O)(CS(N)(=O)=O)c1cccc(-c2nnn(Cc3cc(C(F)(F)F)cc(C(F)(F)F)c3)n2)n1 [Example 83] |  |  | 18 |
| C[C@](O)(CS(N)(=O)=O)c1cccc(-c2nnn(Cc3cc(OC(F)F)ccc3F)n2)n1 [Example 84] |  |  | 14 |
| C[C@](O)(CS(N)(=O)=O)c1cccc(-c2nnn(Cc3c(Cl)cccc3Cl)n2)n1 [Example 85] |  |  | 5.2 |
| C[C@](O)(CS(N)(=O)=O)c1cccc(-c2nnn(Cc3cc(OC(F)(F)F)ccc3Br)n2)n1 [Example 86] |  |  | 6.3 |
| C[C@](O)(CS(N)(=O)=O)c1cccc(-c2nnn(Cc3c(C(F)(F)F)ccc(Cl)c3Cl)n2)n1 [Example 87] |  |  | 9.3 |
| C[C@](O)(CS(N)(=O)=O)c1cccc(-c2nnn(Cc3cc(Cl)cc(OC(F)(F)F)c3)n2)n1 [Example 88] |  |  | 28 |
| C[C@](O)(CS(N)(=O)=O)c1cccc(-c2nnn(Cc3cc(Cl)ccc3C(F)(F)F)n2)n1 [Example 89] |  |  | 27 |
| C[C@](O)(CS(N)(=O)=O)c1cccc(-c2nnn(Cc3cc(Cl)cc(Cl)c3Cl)n2)n1 [Example 90] |  |  | 8.9 |

Reference: patent US20250034108A1, “SODIUM CHANNEL BLOCKERS” (NOVARTIS AG, priority 2023, published 2025)
